PubChem BioAssay AID179 (DTP/NCI, 2004)
pEC50, pIC50: −log10 of the molar value. Active and inactive are the calls of the source.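 How the source made its calls: active means compounds giving half or more protection of infected cells from virus-caused growth loss, again on retest; inactive means the rest.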 Where a SMILES comes first, the peptide text is derived from it.

System: CEM cells HIV-1 protection, formazan growth assay
Assay: NCI AIDS Antiviral Assay
Conditions: for pIC50: measured here: growth of uninfected CEM cells
Summary of the method: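 Category rules: moderately active means at least 50% protection on retest, and confirmed active means 100% protection reproducibly. The underlying data came from a formazan growth assay in HIV-1-infected CEM cells.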

Structure (SMILES)	pEC50	pIC50	outcome
CC12CC3CC/C(=N\O)C(C1)C3(N1CCOCC1)C/C2=N/O (stereo unspecified)	< 3.70	< 3.70	–
Cc1cc(NS(=O)(=O)c2ccc(Nc3c4ccccc4nc4c(C(=O)Nc5ccc(S(N)(=O)=O)cc5)cccc34)cc2)no1	4.60	4.30	–
Cc1cccc(C(O)c2ccccn2)c1O (stereo unspecified)	< 3.70	< 3.70	–
CC(=O)OC(OC(C)=O)n1cc(C=O)c2ccccc21	< 3.70	< 3.70	–
CC[n+]1[b-](C(C)(C)C)n(/N=C(\C)C(C)(C)C)[b-](C(C)(C)C)[n+]1CC	< 3.70	4.50	–
Cn1c(=O)c2nc3sc4ccccc4c(=N)n3c2n(C)c1=O	< 4.38	< 4.38	–
C/C(CC(=O)Nc1ccc([N+](=O)[O-])cc1)=N\NC(N)=O	< 3.33	< 3.33	–
NC(=O)CNC(=O)C1CC(O)CN1C(=O)OCc1ccccc1 (stereo unspecified) (HELM PEPTIDE1{[O=C(OCc1ccccc1)[*:2]].[O=C(C1CC(O)CN1[*:1])[*:2]].G.[am]}$$$$V2.0)	< 3.70	< 3.70	–
CCCCCCCCCCNCCSSCc1ccccc1	< 3.70	5.05	–
CC1=CC(O)C(C(O)(C(F)(F)F)C(F)(F)F)C(C)(C)C1 (stereo unspecified)	< 3.70	3.75	–
C=C1CC/C=C(/C(=O)O)CC[C@H]2[C@@H]1CC2(C)C	< 3.70	3.75	–
O=c1c2nn3c(=O)n(-c4ccc(Cl)cc4)c(=O)c3nn2c(=O)n1-c1ccc(Cl)cc1	< 3.70	< 3.70	–
Cc1n(-c2ccccc2)c2c([n+]1Cc1ccc([N+](=O)[O-])cc1)C(=O)c1ccccc1C2=O	< 4.15	5.44	–
S=C(N/N=C\C=N/NC(=S)N1CCCCCC1)N1CCCCCC1	< 4.00	4.85	–
CCc1occc(=O)c1O	< 2.75	3.47	–
c1ccc([P+](CCC[P+](c2ccccc2)(c2ccccc2)c2ccccc2)(c2ccccc2)c2ccccc2)cc1	< 3.70	3.87	inactive
CCOC(=O)c1ccc(NC(=S)Nc2ncccc2C)cc1	< 3.70	3.80	–
CCOc1ccc(-c2oc(/C=N/NS(=O)(=O)c3ccc(C)cc3)c([N+](=O)[O-])c2-c2ccc(OCC)cc2)cc1	< 5.44	< 5.44	–
Cc1ccc([B-]23OCC[N+]2(CNC(=O)C2=C(O)C4(O)C(=O)C5=C(O)c6c(O)cccc6C(C)(O)C5CC4C(N(C)C)C2=O)CCO3)cc1 (stereo unspecified)	< 4.27	< 4.27	–
COc1ccc(C2=NC(CO)[C@H](c3ccccc3)O2)cc1OC (stereo partly specified)	< 3.66	< 3.66	–
Cc1cc(-c2ccccc2)nc(Nc2cc3ccccc3[nH]2)n1	< 3.22	< 3.22	–

Structure (SMILES)	pEC50	pIC50	outcome
O=S(=O)(O)c1cc(N=Nc2c(O)ccc3ccccc23)ccc1/C=C/c1ccc(N=Nc2c(O)ccc3ccccc23)cc1S(=O)(=O)O	< 4.30	< 4.30	–
O=c1c2cc(-c3ccccc3)sc2nc2n1N=C(c1ccc(Cl)cc1)CS2	< 3.70	< 3.70	–
O=[N+]([O-])c1ccc2[nH]c(=S)n(/C=C(/c3ccccc3)S(=O)Cc3ccccc3)c2c1 (stereo unspecified)	< 3.70	< 3.70	–
COc1cc(C2C(Cl)C(=O)N2NC(=O)c2ccc(NC(C)=O)cc2)ccc1O (stereo unspecified)	< 3.70	< 3.70	–
C1=C2/CC[C@H](Sc3ccccc3)[C@H]2C2(CCCCC/1)OCCO2	< 4.80	< 4.80	–
CC1C2CC(CC2(C)O)C1(C)C (stereo unspecified)	< 3.25	< 3.25	–
Cc1c2c(cc3c1OCN(Cc1ccccc1)C3)CN(Cc1ccccc1)CO2	< 3.70	4.51	–
O=c1cc(-c2ccc(Cl)cc2)oc2cc(OCCCOc3ccc4c(=O)cc(-c5ccc(Cl)cc5)oc4c3)ccc12	< 6.19	< 6.19	–
O=C1CS(=O)(=O)C(c2cccc(F)c2)N1N1C(=O)CS(=O)(=O)C1c1cccc(F)c1 (stereo unspecified)	< 3.70	< 3.70	–
COCCCNc1nc(N)c(C#N)c(C#N)c1C#N	–	–	inactive
FC1(F)SC2C3CCC(C3)C2C1(F)F (stereo unspecified)	–	–	inactive
CCOc1ncn(-c2ccc(NC(=S)Nc3ncccn3)cc2)n1	< 3.70	4.02	–
CN1C(=O)C(O)CC1c1ccc(C(F)(F)F)cc1 (stereo unspecified)	–	–	inactive
CCOC(=O)CN1C(=O)c2c(NC(=O)C(=O)O)cccc2S1(=O)=O	< 3.70	< 3.70	–
CCOC(=O)CCCCCNc1nc(Cl)nc(Cl)n1	< 3.70	< 3.70	–
Cc1cc(N(CCC#N)S(=O)(=O)c2ccccc2)ccc1/C=C1N=C(/C=C/c2ccccc2)OC\1=O	–	–	inactive
CN(C)CN(C)c1nc(N(C)C)nc(N(C)CN(C)C)n1	< 3.70	4.49	–
O=C(O)c1cc(I)cc(I)c1O.O=[N+]([O-])C1CCC(O)C2[N-]CCCC21.[Cu+] (stereo unspecified)	< 3.70	5.25	–
O=c1[nH]c(=S)nc2nc3c4ccc[nH]c4c4ccccc4c3nc12	< 3.70	4.23	–
C=C(C)C(=O)O[C@H]1CC2(CO)O[C@@H]2CC/C(COC(C)=O)=C/C2OC(=O)C(=C)[C@@H]21 (stereo partly specified)	< 3.70	5.36	–
Cc1ccc(Cc2n[nH]c(=O)n2N2C(=O)c3ccccc3C2=O)cc1	< 3.70	< 3.70	–
